This passage reports IC50 results from US11505536B2, “Dihydroorotate dehydrogenase inhibitors” (Janssen Biotech, Inc., priority 2019, dated 2022).

In general, IC50 refers to the concentration needed to halve the response being measured.

Where only a bound is given, the exact number is not on record here.

In experiment [1] the test system is MOLM-13 cells (human acute myeloid leukemia cells). Nature of the experiment: MOLM-13 Cellular Assay. The experiment is classed as cell-based. The following applies: Homo sapiens, MOLM-13, 72 h, 72 hours exposure, cell viability by CellTiter-Glo. Summed up: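 MOLM-13 AML cells, seeded at 5,000/well in RPMI 1640 with 10% FBS, were treated with compounds right after seeding for 72 h at 37 °C, 5% CO2. Viability read by CellTiter-Glo luminescence.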

A further experiment has as its target human DHODH (Homo sapiens (Human), UniProt Q02127). Briefly: DHODH Enzymatic Assay. Type of experiment: biochemical. The following applies: purified human DHODH, DCIP absorbance, end-point mode; read-out: hDHODH IC50. Summed up: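 Purified human DHODH in […] HEPES pH 7.5, 150 mM NaCl, 0.5 mM EDTA, 0.1% Triton X-100; reaction started with substrate mix of 20 mM DHO, 5 mM CoQ6, 1 mM DCIP. End-point read as DCIP reduction (absorbance ~600 nm) after brequinar quench.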

human DHODH, sequence (Q02127 whole entry): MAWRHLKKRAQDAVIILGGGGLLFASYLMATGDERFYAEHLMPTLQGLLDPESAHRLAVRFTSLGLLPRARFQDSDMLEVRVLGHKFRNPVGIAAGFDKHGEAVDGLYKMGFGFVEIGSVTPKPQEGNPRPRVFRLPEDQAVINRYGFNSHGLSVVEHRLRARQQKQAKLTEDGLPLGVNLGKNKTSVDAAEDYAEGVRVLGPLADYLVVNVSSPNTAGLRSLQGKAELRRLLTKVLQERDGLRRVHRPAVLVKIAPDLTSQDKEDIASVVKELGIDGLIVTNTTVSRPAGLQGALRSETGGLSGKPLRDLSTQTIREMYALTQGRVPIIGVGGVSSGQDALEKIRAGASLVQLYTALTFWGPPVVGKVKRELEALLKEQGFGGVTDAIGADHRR

Consider `CCn1c(CO)nn(-c2cc3c(C(C)C)cn(-c4nc(C)ccc4Cl)c(=O)c3cc2F)c1=O` [Example 108, 2-(3-Chloro-6-methylpyridin-2-yl)-6-(4-ethyl-3-(hydroxymethyl)-5-oxo-4,5-dihydro-1H-1,2,4-triazol-1-yl)-7-fluoro-4-isopropylisoquinolin-1(2H)-one], for which the values for the IC50 (in experiment [1]; at human DHODH) were 6 nM and 3.07 nM, respectively.

Take `CCn1c(CO)nn(-c2cc3c(C(C)C)cn(C4CCCC4)c(=O)c3cc2F)c1=O` [Example 109, 2-Cyclopentyl-6-(4-ethyl-3-(hydroxymethyl)-5-oxo-4,5-dihydro-1H-1,2,4-triazol-1-yl)-7-fluoro-4-isopropylisoquinolin-1(2H)-one]: the IC50 in experiment [1] is 9 nM; on human DHODH, 5.37 nM.

As for `CCn1c(CO)nn(-c2cc3c(C(C)C)cn(-c4nccc(OC)c4Cl)c(=O)c3cc2F)c1=O` [Example 110, 2-(3-Chloro-4-methoxypyridin-2-yl)-6-(4-ethyl-3-(hydroxymethyl)-5-oxo-4,5-dihydro-1H-1,2,4-triazol-1-yl)-7-fluoro-4-isopropylisoquinolin-1(2H)-one], the IC50 in experiment [1] worked out at 20 nM; on human DHODH it was 10.4 nM.

On to `CCn1c(CO)nn(-c2cc3c(C(C)C)cn([C@@H]4CCCC[C@@H]4C)c(=O)c3cc2F)c1=O` [Example 111, 6-(4-Ethyl-3-(hydroxymethyl)-5-oxo-4,5-dihydro-1H-1,2,4-triazol-1-yl)-7-fluoro-4-isopropyl-2-((1R,2S)-2-methylcyclohexyl)isoquinolin-1(2H)-one], for which the IC50 in experiment [1] was determined as 0.7 nM; at human DHODH, 3.54 nM.

Turning to `CCn1c(CO)nn(-c2cc3c(C(C)C)cn(C(COC)COC)c(=O)c3cc2F)c1=O` [Example 112, 2-(1,3-Dimethoxypropan-2-yl)-6-(4-ethyl-3-(hydroxymethyl)-5-oxo-4,5-dihydro-1H-1,2,4-triazol-1-yl)-7-fluoro-4-isopropylisoquinolin-1(2H)-one], the IC50 was 30 nM in experiment [1] and 35.3 nM on human DHODH.

As for `CCn1c(CO)nn(-c2cc3c(C(C)C)cn(-c4cc(OC)ncc4C)c(=O)c3cc2F)c1=O` [Example 113, 6-(4-Ethyl-3-(hydroxymethyl)-5-oxo-4,5-dihydro-1H-1,2,4-triazol-1-yl)-7-fluoro-4-isopropyl-2-(2-methoxy-5-methylpyridin-4-yl)isoquinolin-1(2H)-one], the IC50 in experiment [1] stood at 3 nM; at human DHODH it was 2.1 nM.

On to `CCn1c(CO)nn(-c2cc3c(C(C)C)cn([C@H]4CCCC[C@H]4C)c(=O)c3cc2F)c1=O` [Example 114, 6-(4-Ethyl-3-(hydroxymethyl)-5-oxo-4,5-dihydro-1H-1,2,4-triazol-1-yl)-7-fluoro-4-isopropyl-2-((1S,2R)-2-methylcyclohexyl)isoquinolin-1(2H)-one], for which the IC50 in experiment [1] came out at 3 nM; at human DHODH it was 11.6 nM.

Turning to `CCn1c(CO)nn(-c2cc3c(C(C)C)cn(CC4CC4)c(=O)c3cc2F)c1=O` [Example 115, 2-(Cyclopropylmethyl)-6-(4-ethyl-3-(hydroxymethyl)-5-oxo-4,5-dihydro-1H-1,2,4-triazol-1-yl)-7-fluoro-4-isopropylisoquinolin-1(2H)-one], the IC50 turned out to be 80 nM in experiment [1] and 50.9 nM on human DHODH.

For `CCC(COC)n1cc(C(C)C)c2cc(-n3nc(CO)n(CC)c3=O)c(F)cc2c1=O` (stereo not drawn) [Example 116, 6-(4-Ethyl-3-(hydroxymethyl)-5-oxo-4,5-dihydro-1H-1,2,4-triazol-1-yl)-7-fluoro-4-isopropyl-2-(1-methoxybutan-2-yl)isoquinolin-1(2H)-one], the IC50 in experiment [1] is 20 nM; at human DHODH it was 30.7 nM.

Take `CCn1c(CO)nn(-c2cc3c(C(C)C)cn(-c4ncccc4C)c(=O)c3cc2F)c1=O` [Example 118, 6-(4-Ethyl-3-(hydroxymethyl)-5-oxo-4,5-dihydro-1H-1,2,4-triazol-1-yl)-7-fluoro-4-isopropyl-2-(3-methylpyridin-2-yl)isoquinolin-1(2H)-one]: the IC50 stood at 10 nM in experiment [1] and 14.8 nM at human DHODH.

Regarding `CCC(CC)n1cc(C(C)C)c2cc(-n3nc(CO)n(CC)c3=O)c(F)cc2c1=O` [Example 122, 6-(4-Ethyl-3-(hydroxymethyl)-5-oxo-4,5-dihydro-1H-1,2,4-triazol-1-yl)-7-fluoro-4-isopropyl-2-(pentan-3-yl)isoquinolin-1(2H)-one], the IC50 in experiment [1] was determined as 10 nM; at human DHODH, 13.4 nM.

`CCn1c(CO)nn(-c2cc3c(C(C)C)cn(C45CCC(CC4)C5)c(=O)c3cc2F)c1=O` [Example 128, 2-(Bicyclo[2.2.1]heptan-1-yl)-6-(4-ethyl-3-(hydroxymethyl)-5-oxo-4,5-dihydro-1H-1,2,4-triazol-1-yl)-7-fluoro-4-isopropylisoquinolin-1(2H)-one]: the 50% inhibitory concentration (IC50) in experiment [1] was 7 nM; at human DHODH it was 19 nM.

With `CCn1c(CO)nn(-c2cc3c(C(C)C)cn(-c4ccnc(OC)c4C)c(=O)c3cc2F)c1=O` [Example 129, 6-(4-Ethyl-3-(hydroxymethyl)-5-oxo-4,5-dihydro-1H-1,2,4-triazol-1-yl)-7-fluoro-4-isopropyl-2-(2-methoxy-3-methylpyridin-4-yl)isoquinolin-1(2H)-one], the IC50 is 50 nM in experiment [1] and 29.2 nM at human DHODH.

Turning to `CCn1c(CO)nn(-c2nc3c(C(C)C)cn(-c4ccccc4OC)c(=O)c3cc2F)c1=O` [Example 130, 2-(4-Ethyl-3-(hydroxymethyl)-5-oxo-4,5-dihydro-1H-1,2,4-triazol-1-yl)-3-fluoro-8-isopropyl-6-(2-methoxyphenyl)-1,6-naphthyridin-5(6H)-one], the values for the IC50 (in experiment [1]; on human DHODH) were 0.9 nM and 0.885 nM, respectively.

As for `CCn1c(CO)nn(-c2cc3c(C(C)C)cn(-c4csnc4C)c(=O)c3cc2F)c1=O` [Example 131, 6-(4-Ethyl-3-(hydroxymethyl)-5-oxo-4,5-dihydro-1H-1,2,4-triazol-1-yl)-7-fluoro-4-isopropyl-2-(3-methylisothiazol-4-yl)isoquinolin-1(2H)-one], the IC50 in experiment [1] came to 50 nM; at human DHODH, 33.7 nM.

`CCn1c(CO)nn(-c2cc3c(C(C)C)cn(-c4cnsc4C)c(=O)c3cc2F)c1=O` [Example 132, 6-(4-Ethyl-3-(hydroxymethyl)-5-oxo-4,5-dihydro-1H-1,2,4-triazol-1-yl)-7-fluoro-4-isopropyl-2-(5-methylisothiazol-4-yl)isoquinolin-1(2H)-one]: the 50% inhibitory concentration (IC50) is 4 nM in experiment [1] and 3.72 nM at human DHODH.

In the case of `CCn1c(CO)nn(-c2cc3c(C(C)C)cn(-c4cc(C)ncc4C)c(=O)c3cc2F)c1=O` [Example 135, 2-(2,5-Dimethylpyridin-4-yl)-6-(4-ethyl-3-(hydroxymethyl)-5-oxo-4,5-dihydro-1H-1,2,4-triazol-1-yl)-7-fluoro-4-isopropylisoquinolin-1(2H)-one], the figures for the IC50 (in experiment [1]; at human DHODH) were 50 nM and 6.93 nM, respectively.

Consider `CCn1c(CO)nn(-c2cc3c(C(C)C)cn(-c4cnccc4C)c(=O)c3cc2F)c1=O` [Example 136, 6-(4-Ethyl-3-(hydroxymethyl)-5-oxo-4,5-dihydro-1H-1,2,4-triazol-1-yl)-7-fluoro-4-isopropyl-2-(4-methylpyridin-3-yl)isoquinolin-1(2H)-one], for which the IC50 in experiment [1] was found to be 8 nM; at human DHODH, 4.79 nM.

With `CCn1c(CO)nn(-c2cc3c(C(C)C)cn(-c4ccncc4C)c(=O)c3cc2F)c1=O` [Example 137, 6-(4-Ethyl-3-(hydroxymethyl)-5-oxo-4,5-dihydro-1H-1,2,4-triazol-1-yl)-7-fluoro-4-isopropyl-2-(3-methylpyridin-4-yl)isoquinolin-1(2H)-one], the IC50 in experiment [1] was 8 nM; on human DHODH it was 8.08 nM.

Turning to `CCn1c(CO)nn(-c2cc3c(C(C)C)cn(-c4cccnc4C)c(=O)c3cc2F)c1=O` [Example 138, 6-(4-Ethyl-3-(hydroxymethyl)-5-oxo-4,5-dihydro-1H-1,2,4-triazol-1-yl)-7-fluoro-4-isopropyl-2-(2-methylpyridin-3-yl)isoquinolin-1(2H)-one], the IC50 in experiment [1] is greater than 100 nM; on human DHODH, 80.4 nM.

As for `CCn1c(CO)nn(-c2cc3c(C(C)C)cn(-c4cc(O)ncc4C)c(=O)c3cc2F)c1=O` [Example 139, 6-(4-Ethyl-3-(hydroxymethyl)-5-oxo-4,5-dihydro-1H-1,2,4-triazol-1-yl)-7-fluoro-2-(2-hydroxy-5-methylpyridin-4-yl)-4-isopropylisoquinolin-1(2H)-one], the IC50 in experiment [1] was greater than 100 nM; on human DHODH, 35.4 nM.

`CCn1c(CO)nn(-c2nc3c(C(C)C)cn(-c4ccccc4C(F)F)c(=O)c3cc2F)c1=O` [Example 140]: the IC50 in experiment [1] is 1 nM; on human DHODH, 1.13 nM.

Take `CCn1c(CO)nn(-c2cc3c(C(C)C)cn(-c4ccnc(O)c4C)c(=O)c3cc2F)c1=O` [Example 141, 6-(4-Ethyl-3-(hydroxymethyl)-5-oxo-4,5-dihydro-1H-1,2,4-triazol-1-yl)-7-fluoro-2-(2-hydroxy-3-methylpyridin-4-yl)-4-isopropylisoquinolin-1(2H)-one]: the IC50 in experiment [1] is greater than 100 nM; on human DHODH it was 10.5 nM.

For the compound `[2H]C([2H])([2H])c1ccccc1-n1cc(C(C)C)c2nc(-n3nc(CO)n(CC)c3=O)c(F)cc2c1=O` [Example 142, 2-(4-Ethyl-3-(hydroxymethyl)-5-oxo-4,5-dihydro-1H-1,2,4-triazol-1-yl)-3-fluoro-8-isopropyl-6-(o-D3-tolyl)-1,6-naphthyridin-5(6H)-one], the figures for the IC50 (in experiment [1]; on human DHODH) were 0.4 nM and 0.623 nM, respectively.
